Results as given in ChEMBL document CHEMBL5244269, “Improving metabolic stability and removing aldehyde oxidase liability in a 5-azaquinazoline series of IRAK4 inhibitors” (Bioorg Med Chem, 2020).
pIC50: −log10 of the molar value. Values after ≈ are worked out from the molar mass of the structure shown.

Tests used:
[1] = test system: SUD4; assay: Growth inhibition of human SU-DHL-4 cells at 0.33 uM incubated for 3 days in presence of 0.033 uM acalabrutinib relative to control; format: functional; settings: SU-DHL-4, 72 h, time 3 day, read-out: GI
[2] = test system: SUD4; assay: Growth inhibition of human SU-DHL-4 cells at 0.17 uM incubated for 3 days in presence of 0.33 uM acalabrutinib relative to control; format: functional; settings: SU-DHL-4, 72 h, time 3 day, read-out: GI
[3] = target: T1, Interleukin-1 receptor-associated kinase 4 (Homo sapiens, UniProt Q9NWZ3); assay: Inhibition of IRAK4 (unknown origin) in presence of ATP by enzymatic assay
T1 sequence (Q9NWZ3 whole entry): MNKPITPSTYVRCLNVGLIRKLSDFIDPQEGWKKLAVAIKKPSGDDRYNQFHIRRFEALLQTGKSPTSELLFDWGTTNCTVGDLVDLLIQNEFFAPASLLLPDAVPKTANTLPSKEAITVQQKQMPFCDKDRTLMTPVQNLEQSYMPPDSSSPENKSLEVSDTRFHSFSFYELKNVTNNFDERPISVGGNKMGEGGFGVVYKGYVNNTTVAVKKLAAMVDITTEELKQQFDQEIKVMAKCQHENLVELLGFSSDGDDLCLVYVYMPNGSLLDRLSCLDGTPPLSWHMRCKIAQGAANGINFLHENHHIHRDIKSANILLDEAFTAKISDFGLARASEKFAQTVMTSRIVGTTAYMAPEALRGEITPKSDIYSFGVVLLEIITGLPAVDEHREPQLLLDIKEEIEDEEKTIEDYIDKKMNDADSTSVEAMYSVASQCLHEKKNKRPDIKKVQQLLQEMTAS

[4] = target: T1, Interleukin-1 receptor-associated kinase 4; assay: Inhibition of IRAK4 (unknown origin) phosphorylation by cell based assay
[5] = Lipophilicity, LogD at pH 7.4 of the compound by shake flask method; format: physicochemical; settings: buffer
[6] = Metabolic stability in human hepatocytes assessed as intrinsic clearance measured per 10^6 cells; format: ADME, cell-based, Hepatocyte; settings: read-out: CLH
[7] = Apparent permeability across apical to basolateral side in human Caco-2 cells measured for 360 mins by liquid scintillation counting based analysis; format: ADME, cell-based
[8] = Efflux ratio of apparent permeability basolateral to apical side over apical to basolateral side in human Caco-2 cells measured for 360 mins by liquid scintillation counting based analysis; format: ADME, cell-based
[9] = Aqueous solubility in pH 7.4 phosphate buffer; format: physicochemical
[10] = target: T2, Receptor-type tyrosine-protein kinase FLT3 (Homo sapiens, UniProt P36888); assay: Inhibition of FLT3 (unknown origin) in presence of 600 uM ATP
T2 sequence (P36888 whole entry): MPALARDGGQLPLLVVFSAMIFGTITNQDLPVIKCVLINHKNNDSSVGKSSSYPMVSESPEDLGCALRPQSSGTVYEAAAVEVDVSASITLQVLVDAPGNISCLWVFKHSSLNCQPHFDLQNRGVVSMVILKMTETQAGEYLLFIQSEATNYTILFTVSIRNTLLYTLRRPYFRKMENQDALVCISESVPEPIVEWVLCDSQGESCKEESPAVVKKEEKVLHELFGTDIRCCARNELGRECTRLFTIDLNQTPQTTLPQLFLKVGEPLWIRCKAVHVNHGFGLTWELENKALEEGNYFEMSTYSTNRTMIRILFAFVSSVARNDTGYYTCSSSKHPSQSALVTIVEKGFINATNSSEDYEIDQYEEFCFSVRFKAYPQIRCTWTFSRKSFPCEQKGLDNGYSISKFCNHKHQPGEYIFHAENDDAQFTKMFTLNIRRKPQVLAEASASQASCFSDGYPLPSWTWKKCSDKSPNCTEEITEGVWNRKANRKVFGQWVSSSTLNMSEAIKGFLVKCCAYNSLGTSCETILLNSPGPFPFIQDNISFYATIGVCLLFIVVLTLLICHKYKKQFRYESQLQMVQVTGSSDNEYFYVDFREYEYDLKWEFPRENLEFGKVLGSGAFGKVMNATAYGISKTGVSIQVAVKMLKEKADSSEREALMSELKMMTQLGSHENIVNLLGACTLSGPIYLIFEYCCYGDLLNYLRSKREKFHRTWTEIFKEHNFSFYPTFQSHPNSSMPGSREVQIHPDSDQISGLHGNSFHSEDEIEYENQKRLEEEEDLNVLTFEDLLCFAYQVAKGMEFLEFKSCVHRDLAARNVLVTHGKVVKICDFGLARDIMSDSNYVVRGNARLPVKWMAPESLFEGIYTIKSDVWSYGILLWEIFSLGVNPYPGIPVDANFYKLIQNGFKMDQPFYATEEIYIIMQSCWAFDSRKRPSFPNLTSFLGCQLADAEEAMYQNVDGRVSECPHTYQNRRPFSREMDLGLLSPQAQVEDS

[11] = target: High affinity nerve growth factor receptor (Homo sapiens, UniProt P04629); assay: Inhibition of TRKA (unknown origin) in presence of 400 uM ATP
Sequence of High affinity nerve growth factor receptor (P04629 whole entry): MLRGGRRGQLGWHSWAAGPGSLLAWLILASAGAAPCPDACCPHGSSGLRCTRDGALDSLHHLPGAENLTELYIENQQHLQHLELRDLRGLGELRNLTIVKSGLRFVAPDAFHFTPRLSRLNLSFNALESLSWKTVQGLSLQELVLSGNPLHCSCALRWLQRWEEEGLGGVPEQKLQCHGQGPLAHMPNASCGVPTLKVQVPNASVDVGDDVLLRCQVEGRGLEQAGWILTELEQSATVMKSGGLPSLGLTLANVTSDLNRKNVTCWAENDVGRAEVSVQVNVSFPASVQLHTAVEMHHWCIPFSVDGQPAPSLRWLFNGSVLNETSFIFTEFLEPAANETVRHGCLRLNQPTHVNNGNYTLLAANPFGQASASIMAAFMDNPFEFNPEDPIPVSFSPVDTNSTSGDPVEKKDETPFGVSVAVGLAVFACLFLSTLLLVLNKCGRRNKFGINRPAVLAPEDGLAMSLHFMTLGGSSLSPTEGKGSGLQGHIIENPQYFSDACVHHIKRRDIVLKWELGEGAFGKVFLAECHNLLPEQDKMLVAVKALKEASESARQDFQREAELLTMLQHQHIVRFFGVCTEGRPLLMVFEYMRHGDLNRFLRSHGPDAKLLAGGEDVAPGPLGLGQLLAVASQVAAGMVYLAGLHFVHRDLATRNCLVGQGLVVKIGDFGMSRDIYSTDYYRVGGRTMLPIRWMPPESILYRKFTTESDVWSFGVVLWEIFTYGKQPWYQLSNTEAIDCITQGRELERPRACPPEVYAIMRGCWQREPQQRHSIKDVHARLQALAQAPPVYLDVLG

[12] = target: NT-3 growth factor receptor (Homo sapiens, UniProt Q16288); assay: Inhibition of TRKC (unknown origin) in presence of 50 uM ATP
Sequence of NT-3 growth factor receptor (Q16288 whole entry): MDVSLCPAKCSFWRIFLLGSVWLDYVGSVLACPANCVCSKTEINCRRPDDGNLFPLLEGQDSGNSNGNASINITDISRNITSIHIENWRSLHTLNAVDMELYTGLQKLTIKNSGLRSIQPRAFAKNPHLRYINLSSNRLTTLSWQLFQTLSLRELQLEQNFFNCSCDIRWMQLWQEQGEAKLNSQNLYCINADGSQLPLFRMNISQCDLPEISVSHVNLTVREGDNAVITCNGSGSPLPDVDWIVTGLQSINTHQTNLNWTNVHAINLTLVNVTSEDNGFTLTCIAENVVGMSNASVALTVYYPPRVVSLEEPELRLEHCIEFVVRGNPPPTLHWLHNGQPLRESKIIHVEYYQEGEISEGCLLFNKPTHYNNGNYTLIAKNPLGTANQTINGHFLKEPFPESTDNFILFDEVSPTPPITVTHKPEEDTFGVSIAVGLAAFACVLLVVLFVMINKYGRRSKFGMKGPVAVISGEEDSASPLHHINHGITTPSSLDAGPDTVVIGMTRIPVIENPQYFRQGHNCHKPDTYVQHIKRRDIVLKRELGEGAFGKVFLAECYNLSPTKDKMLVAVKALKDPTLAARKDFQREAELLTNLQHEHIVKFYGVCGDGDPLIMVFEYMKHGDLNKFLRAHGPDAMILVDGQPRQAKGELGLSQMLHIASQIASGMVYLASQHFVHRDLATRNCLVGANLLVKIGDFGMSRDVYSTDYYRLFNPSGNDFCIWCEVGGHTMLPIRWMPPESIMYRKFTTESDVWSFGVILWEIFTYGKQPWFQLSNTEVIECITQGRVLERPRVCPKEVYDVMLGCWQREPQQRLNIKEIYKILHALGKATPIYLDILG

[13] = test system: OCI-Ly10; assay: Growth inhibition of human OCILY10 cells at 0.17 uM incubated for 3 days (Rvb= -3%); format: functional; settings: OCI-Ly10, 72 h, time 3 day, read-out: GI
[14] = test system: OCI-Ly10; assay: Growth inhibition of human OCILY10 cells at 0.33 uM incubated for 3 days (Rvb= -3%); format: functional; settings: OCI-Ly10, 72 h, time 3 day, read-out: GI
[15] = test system: OCI-Ly10; assay: Growth inhibition of human OCILY10 cells at 1.7 uM incubated for 3 days (Rvb= -3%); format: functional; settings: OCI-Ly10, 72 h, time 3 day, read-out: GI
[16] = test system: OCI-Ly10; assay: Growth inhibition of human OCILY10 cells at 10 uM incubated for 3 days (Rvb= -3%); format: functional; settings: OCI-Ly10, 72 h, time 3 day, read-out: GI
[17] = test system: OCI-Ly10; assay: Growth inhibition of human OCILY10 cells at 1.7 uM incubated for 3 days in presence of 0.017 uM acalabrutinib relative to control; format: functional; settings: OCI-Ly10, 72 h, time 3 day, read-out: GI
[18] = test system: OCI-Ly10; assay: Growth inhibition of human OCILY10 cells at 1.7 uM incubated for 3 days in presence of 0.33 uM acalabrutinib relative to control; format: functional; settings: OCI-Ly10, 72 h, time 3 day, read-out: GI
[19] = test system: OCI-Ly10; assay: Growth inhibition of human OCILY10 cells at 3.3 uM incubated for 3 days in presence of 0.017 uM acalabrutinib relative to control; format: functional; settings: OCI-Ly10, 72 h, time 3 day, read-out: GI
[20] = test system: OCI-Ly10; assay: Growth inhibition of human OCILY10 cells at 10 uM incubated for 3 days in presence of 0.33 uM acalabrutinib relative to control; format: functional; settings: OCI-Ly10, 72 h, time 3 day, read-out: GI
[21] = test system: SUD4; assay: Growth inhibition of human SU-DHL-4 cells at 1.7 uM incubated for 3 days in presence of 0.17 uM acalabrutinib relative to control; format: functional; settings: SU-DHL-4, 72 h, time 3 day, read-out: GI
[22] = test system: SUD4; assay: Growth inhibition of human SU-DHL-4 cells at 3.3 uM incubated for 3 days in presence of 0.017 uM acalabrutinib relative to control; format: functional; settings: SU-DHL-4, 72 h, time 3 day, read-out: GI
[23] = test system: SUD4; assay: Growth inhibition of human SU-DHL-4 cells at 3.3 uM incubated for 3 days in presence of 0.033 uM acalabrutinib relative to control; format: functional; settings: SU-DHL-4, 72 h, time 3 day, read-out: GI
[24] = test system: SUD4; assay: Growth inhibition of human SU-DHL-4 cells at 3.3 uM incubated for 3 days (reference value: -1%); format: functional; settings: SU-DHL-4, 72 h, time 3 day, read-out: GI
[25] = test system: SUD4; assay: Growth inhibition of human SU-DHL-4 cells at 1.7 uM incubated for 3 days (reference value: -1%); format: functional; settings: SU-DHL-4, 72 h, time 3 day, read-out: GI
[26] = test system: SUD4; assay: Growth inhibition of human SU-DHL-4 cells at 0.17 uM incubated for 3 days (reference value: -1%); format: functional; settings: SU-DHL-4, 72 h, time 3 day, read-out: GI

Row | Compound | inhibition of growth at 0.33 µM [1] | inhibition of growth at 0.17 µM [2] | pIC50 [3] | pIC50 [4] | logD [5] | hepatocyte CLint [6] | Papp A→B at 6 h [7] | efflux ratio at 6 h [8] | solubility [9] | pIC50 [10] | pIC50 [11] | pIC50 [12] | inhibition of growth at 0.17 µM [13] | inhibition of growth at 1.7 µM [17] | inhibition of growth at 1.7 µM [18] | inhibition of growth at 3.3 µM [19] | inhibition of growth at 10 µM [20] | inhibition of growth at 1.7 µM [21] | inhibition of growth at 3.3 µM [22] | inhibition of growth at 3.3 µM [23] | also measured
1 | Cc1ncc(-c2nc3c(NC(C)C)nc(Nc4cnn(C5CC6(C5)CN(C)C6)c4)nc3cc2F)cn1 | 3% | 6% | 8.70 | 6.68 | 1.9 | < 1 µL/min/1e6 cells | 7.7 ×10⁻⁶ cm/s | 4.2 | > 1000 µM | 5.82 | 6.32 | 6.24 | 5% | 196% | 195% | 196% | 198% | 3% | 4% | 4% | inhibition of growth at 0.33 µM [14]: 35%; inhibition of growth at 1.7 µM [15]: 75%; inhibition of growth at 10 µM [16]: 157%
2 | Cc1ncc(-c2nc3c(OC4(C)CC4)nc(Nc4cnn(C5CCN(C)CC5)c4)nc3cc2F)cn1 | -3% | -2% | 8.52 | 6.96 | 2.6 | < 1 µL/min/1e6 cells | 31 ×10⁻⁶ cm/s | 1.4 | 800 µM (≈ 392 µg/mL) | < 5.05 | 6.57 | 6.57 | 1% | 188% | 193% | 194% | 197% | -3% | 0% | -4% | inhibition of growth at 3.3 µM [24]: -2%; inhibition of growth at 1.7 µM [25]: -2%; inhibition of growth at 0.17 µM [26]: -2%; inhibition of growth at 0.33 µM [14]: 8%; inhibition of growth at 1.7 µM [15]: 44%; inhibition of growth at 10 µM [16]: 148%
3 | CC[C@@H]1[C@H](F)C(=O)N[C@@H]1COc1nccc2cc(C(N)=O)c(OC)cc12 [ZIMLOVISERTIB] | 1% | 6% | – | – | – | – | – | – | – | – | – | – | – | 89% | 170% | 95% | 177% | 3% | 2% | 2% | inhibition of growth at 3.3 µM [24]: 1%; inhibition of growth at 1.7 µM [25]: 1%; inhibition of growth at 0.17 µM [26]: 1%
